Test results reported in publication PMC12068666, “Synthesis of thiazole-integrated pyrrolotriazinones: evaluations of cytotoxicity and effects on PI3K levels in cancer cells” (Turkish Journal of Chemistry, 2025).
“Also recorded” adds a separate entry of the source.

Tests used:
PI3K enzyme = conditions: cited from earlier work
MCF-7 cells = assay: MTT assay, antiproliferative activity, MCF-7; assay type: cell-based, human; conditions: for IC50: Homo sapiens, MCF7, MTT, 24 h treatment, mean ± SD; for Selectivity Index (SI) MCF-7: IC50 of healthy cells (NIH/3T3)/IC50 of cancer cells
Method: (§1) MCF-7 (human ER + breast cancer, HTB-22, USA), A549 (human nonsmall cell lung cancer, ATTC CRM-CCL-185, USA), HepG2 (human liver cancer, ATTC HB-8065, USA), and NIH/3T3 (mouse embryonic fibroblast, ATCC, CRL-1658, USA) cells were maintained in DMEM supplemented with 10% fetal bovine serum and 1% penicillin/streptomycin. The cells were maintained under appropriate conditions (37 °C, 5% CO2).
(§2) The antiproliferative activity of the newly synthesized compounds was measured using the MTT assay as described in a previous study. Briefly, cells were seeded at a density of 6 × 10^3 cells/well and incubated for 24 h in a 37 °C humidified incubator with 5% CO2. Afterwards, the cells were treated with increasing concentrations (1, 2.5, 5, 10, 25, 50, 75, and 100 μM) of compounds and incubated for another 24 h. Moreover, some cells were incubated with doxorubicin (1, 5, 10, 25, and 50 μM) for comparison, while other cells treated only with 1% DMSO was used as the solvent control. After incubation, 20 μL of MTT solution (5 mg/mL in PBS) was added to each well, and the plate was incubated for 4 h under the same conditions. Following this period, the medium was discarded and replaced with DMSO. The absorbance of dissolved formazan crystals was measured using a multiplate reader. The IC50 value and the selectivity index of each compound were calculated as previously described.
(§3) The antiproliferative effect of all newly synthesized thiazole-integrated pyrrolotriazinone derivatives were assessed against cancer cell lines (MCF-7, A549, and HepG2) as well as a healthy cell line (NIH/3T3) using the MTT assay. The IC50 values were determined through the nonlinear regression algorithm for log (inhibitor) versus normalized response-variable slope, as implemented in GraphPad [Y = 100/(1 + 10^X−LogIC50), where X represents the logarithm of the inhibitor concentration and Y denotes the response]. Additionally, Selectivity Indices (SI: IC50 of healthy cells/IC50 of cancer cells) were calculated.

A549 cells = assay: MTT assay, antiproliferative activity, A549; assay type: cell-based, human; conditions: for IC50: Homo sapiens, A549, MTT, 24 h treatment, mean ± SD; for Selectivity Index (SI) A549: IC50 of healthy cells (NIH/3T3)/IC50 of cancer cells
Method: as §1, §2, §3

HepG2 cells = assay: MTT assay, antiproliferative activity, HepG2; assay type: cell-based, human; conditions: for IC50: Homo sapiens, HepG2, MTT, 24 h treatment, mean ± SD; for Selectivity Index (SI) HepG2: IC50 of healthy cells (NIH/3T3)/IC50 of cancer cells
Method: as §1, §2, §3

NIH/3T3 cells = assay: MTT assay, healthy cell line NIH/3T3; assay type: cell-based; conditions: Mus musculus, NIH3T3, 24 h treatment, mean ± SD
Method: as §1, §2, §3

PI3K [1] = assay: PI3K protein levels by ELISA in MCF-7 cells; assay type: cell-based, human; conditions: IC50 concentration, 24 h, compared to 1% DMSO control
Method: (§4) The protein levels of PI3K in MCF-7 and HepG2 cells were assessed using enzyme-linked immunosorbent assay (ELISA) kits. […] After the incubation period, the medium was collected, and PI3K protein levels were measured using ELISA kits according to the manufacturer’s instructions (Cat no: ELK9879, ELK Biotechnology, Denver, USA).

PI3K [2] = assay: PI3K protein levels by ELISA in HepG2 cells; assay type: cell-based, human; conditions: IC50 concentration, 24 h, compared to 1% DMSO control
Method: as §4

**Q.** Which IC50 (PI3K enzyme) does the source give for Cc1ccccc1-n1c(Cn2cnc3c(N)ncnc32)nn2ccc(C)c2c1=O [Compound 5] here?
**A.** 0.11 µM

**Q.** Which IC50 (MCF-7 cells) does the source give for O=c1n(-c2nc(-c3ccc(F)c(Cl)c3)cs2)ncc2cccn12 [Compound 26, 3-(4-(3-chloro-4-fluorophenyl)thiazol-2-yl)pyrrolo[1,2-d][1,2,4]triazin-4(3H)-one] here?
**A.** 14.2 ± 0.42 µM

**Q.** And the IC50 (A549 cells)?
**A.** 25.2 ± 0.39 µM

**Q.** And the “Selectivity Index (SI) A549” value (A549 cells)?
**A.** 5.53

**Q.** What about the IC50 (HepG2 cells) of the same molecule?
**A.** 15.1 ± 0.61 µM

**Q.** What about the “Selectivity Index (SI) HepG2” value (HepG2 cells) of the same molecule?
**A.** 9.22

**Q.** What about the IC50 (NIH/3T3 cells) of the same molecule?
**A.** > 100 µM

**Q.** And the “PI3K protein levels in MCF-7 cells” value (PI3K [1])?
**A.** significantly reduced

**Q.** Which IC50 (MCF-7 cells) does the source give for O=c1n(-c2nc(-c3ccc(Cl)c(Cl)c3)cs2)ncc2cccn12 [Compound 25, 3-(4-(3,4-dichlorophenyl)thiazol-2-yl)pyrrolo[1,2-d][1,2,4]triazin-4(3H)-one] here?
**A.** 8.1 ± 0.17 µM

**Q.** What about the “Selectivity Index (SI) MCF-7” value (MCF-7 cells) of the same molecule?
**A.** 13.60

**Q.** What about the IC50 (A549 cells) of the same molecule?
**A.** 38.7 ± 0.4 µM

**Q.** And the “Selectivity Index (SI) A549” value (A549 cells)?
**A.** 2.84

**Q.** And the IC50 (HepG2 cells)?
**A.** 7.21 µM

**Q.** What about the “Selectivity Index (SI) HepG2” value (HepG2 cells) of the same molecule?
**A.** 15.20

**Q.** What about the IC50 (NIH/3T3 cells) of the same molecule?
**A.** > 100 µM

**Q.** And the “PI3K protein levels in MCF-7 cells” value (PI3K [1])?
**A.** significantly reduced; also recorded: significant reduction in PI3K protein levels

**Q.** And the “PI3K protein levels in HepG2 cells” value (PI3K [2])?
**A.** markedly diminished; also recorded: significant reduction in PI3K protein levels

**Q.** For O=c1n(-c2nc(-c3ccc(Cl)cc3)cs2)ncc2cccn12 [Compound 21, 3-(4-(4-chlorophenyl)thiazol-2-yl)pyrrolo[1,2-d][1,2,4]triazin-4(3H)-one], which IC50 (MCF-7 cells) is on record?
**A.** 11.2 ± 0.12 µM

**Q.** And the “Selectivity Index (SI) MCF-7” value (MCF-7 cells)?
**A.** 9.51

**Q.** What about the IC50 (A549 cells) of the same molecule?
**A.** 39.2 ± 1.41 µM

**Q.** And the “Selectivity Index (SI) A549” value (A549 cells)?
**A.** 2.72

**Q.** What about the IC50 (HepG2 cells) of the same molecule?
**A.** 10.2 ± 0.95 µM

**Q.** What about the “Selectivity Index (SI) HepG2” value (HepG2 cells) of the same molecule?
**A.** 10.40

**Q.** What about the IC50 (NIH/3T3 cells) of the same molecule?
**A.** > 100 µM

**Q.** And the “PI3K protein levels in MCF-7 cells” value (PI3K [1])?
**A.** significantly reduced; also recorded: did reduce PI3K levels

**Q.** And the “PI3K protein levels in HepG2 cells” value (PI3K [2])?
**A.** did not alter PI3K levels

**Q.** Which IC50 (PI3K enzyme) does the source give for Cc1ccccc1-n1c(Cn2cnc3c(N)ncnc32)nc2cccc(C)c2c1=O [IC87114] here?
**A.** 0.13 µM

**Q.** For O=c1n(-c2nc(-c3ccc(Cl)cc3Cl)cs2)ncc2cccn12 [Compound 27, 3-(4-(2,4-dichlorophenyl)thiazol-2-yl)pyrrolo[1,2-d][1,2,4]triazin-4(3H)-one], which IC50 (MCF-7 cells) is on record?
**A.** 9.23 ± 1.09 µM

**Q.** And the “Selectivity Index (SI) MCF-7” value (MCF-7 cells)?
**A.** 10.30

**Q.** What about the IC50 (A549 cells) of the same molecule?
**A.** 37.2 ± 1.15 µM

**Q.** And the “Selectivity Index (SI) A549” value (A549 cells)?
**A.** 2.83

**Q.** And the IC50 (HepG2 cells)?
**A.** 6.18 ± 0.63 µM

**Q.** And the IC50 (NIH/3T3 cells)?
**A.** > 100 µM

**Q.** What about the “PI3K protein levels in MCF-7 cells” value (PI3K [1]) of the same molecule?
**A.** significantly reduced; also recorded: reduced PI3K levels; also recorded: significant reduction in PI3K protein levels

**Q.** And the “PI3K protein levels in HepG2 cells” value (PI3K [2])?
**A.** markedly diminished; also recorded: reduced PI3K levels; also recorded: significant reduction in PI3K protein levels

**Q.** With Cc1ccn2nc(C(C)n3cnc4c(N)ncnc43)n(-c3ccccc3)c(=O)c12 (stereo not drawn) [Compound 6] as the molecule, how does the IC50 (PI3K enzyme) read?
**A.** 0.075 µM
